Target: T1, recombinant human AKR1C3 (Homo sapiens, UniProt P42330)
T1 construct: GST (cleaved yes); made in house; host or cells: E. coli
T1 sequence (P42330 1-323): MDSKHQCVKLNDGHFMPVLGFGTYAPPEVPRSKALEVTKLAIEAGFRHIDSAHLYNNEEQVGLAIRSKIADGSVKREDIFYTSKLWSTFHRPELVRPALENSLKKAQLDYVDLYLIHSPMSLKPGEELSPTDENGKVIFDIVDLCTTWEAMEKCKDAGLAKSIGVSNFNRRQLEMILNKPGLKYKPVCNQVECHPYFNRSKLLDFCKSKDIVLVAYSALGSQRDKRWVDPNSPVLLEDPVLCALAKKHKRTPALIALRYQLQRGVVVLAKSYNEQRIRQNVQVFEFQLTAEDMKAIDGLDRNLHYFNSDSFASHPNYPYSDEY
Experiment: AKR1C3-inhibitory activity assay (generation of Coumberol from Coumberone)
Assay type: biochemical
Conditions: Coumberone 0.3 μM, NADPH 10 μM, 22° C., typically 90 min, average or median values
In short: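 Recombinant human AKR1C3 (E. coli GST fusion, GST removed; ~1 nM) preincubated 15 min with compound, then NADPH 10 μM and Coumberone 0.3 μM (final), 22 °C, typically 90 min, in 50 mM K-phosphate pH 7. Stopped with EM-1404 (1 μM final); Coumberol fluorescence read at 520 nm (ex 380 nm), normalized to no-inhibitor and no-enzyme controls.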

SMILES	IC50 [nM]
Cc1ccccc1S(=O)(=O)N1C[C@H](C)N(C(=O)c2cnn[nH]2)C[C@H]1C [Example 69, {(2S,5R)-2,5-dimethyl-4-[(2-methylphenyl)sulfonyl]piperazin-1-yl}(1H-1,2,3-triazol-5-yl)methanone]	1
CC1(C)CN(C(=O)c2cnn[nH]2)CCN1S(=O)(=O)c1cc(F)ccc1F [Example 37, {4-[(2,5-difluorophenyl)sulfonyl]-3,3-dimethylpiperazin-1-yl}(1H-1,2,3-triazol-5-yl)methanone]	8
CC1(C)CN(C(=O)c2cnn[nH]2)CCN1S(=O)(=O)c1cccc2nsnc12 [Example 121, [4-(2,1,3-benzothiadiazol-4-ylsulfonyl)-3,3-dimethylpiperazin-1-yl](1H-1,2,3-triazol-5-yl)methanone]	29
C[C@@H]1CN(C(=O)c2cnn[nH]2)[C@@H](C)CN1S(=O)(=O)c1c(F)cccc1F [Example 79, {(2S,5R)-4-[(2,6-difluorophenyl)sulfonyl]-2,5-dimethylpiperazin-1-yl}(1H-1,2,3-triazol-5-yl)methanone]	2
C[C@@H]1CN(C(=O)c2cnn[nH]2)[C@@H](C)CN1S(=O)(=O)c1cccc(OC(F)(F)F)c1 [Example 85, [(2S,5R)-2,5-dimethyl-4-{[3-(trifluoromethoxy)phenyl]sulfonyl}piperazin-1-yl](1H-1,2,3-triazol-5-yl)methanone]	2
C[C@@H]1CN(C(=O)c2cnn[nH]2)[C@@H](C)CN1S(=O)(=O)c1ccccc1F [Example 5, {(2S,5R)-4-[(2-fluorophenyl)sulfonyl]-2,5-dimethylpiperazin-1-yl}(1H-1,2,3-triazol-5-yl)methanone]	2
C[C@@H]1CN(C(=O)c2cnn[nH]2)[C@@H](C)CN1S(=O)(=O)c1ccccc1Cl [Example 73, {(2S,5R)-4-[(2-chlorophenyl)sulfonyl]-2,5-dimethylpiperazin-1-yl}(1H-1,2,3-triazol-5-yl)methanone]	1
C[C@@H]1CN(S(=O)(=O)c2ccc(F)c(F)c2)C[C@H](C)N1C(=O)c1c[nH]nn1 [Example 60, {(2R,6S)-4-[(3,4-difluorophenyl)sulfonyl]-2,6-dimethylpiperazin-1-yl}(1H-1,2,3-triazol-4-yl)methanone]	47
C[C@@H]1CN(C(=O)c2cnn[nH]2)[C@@H](C)CN1S(=O)(=O)c1ccccc1-c1ccccc1 [Example 86, [(2S,5R)-4-(biphenyl-2-ylsulfonyl)-2,5-dimethylpiperazin-1-yl](1H-1,2,3-triazol-5-yl)methanone]	32
C[C@@H]1CN(C(=O)c2cnn[nH]2)[C@@H](C)CN1S(=O)(=O)c1ccc(F)c(Cl)c1 [Example 91, {(2S,5R)-4-[(3-chloro-4-fluorophenyl)sulfonyl]-2,5-dimethylpiperazin-1-yl}(1H-1,2,3-triazol-5-yl)methanone]	1
CC1(C)CN(C(=O)c2cnn[nH]2)CCN1S(=O)(=O)c1cccc(Cl)c1C#N [Example 134, 2-chloro-6-{[2,2-dimethyl-4-(1H-1,2,3-triazol-5-ylcarbonyl)piperazin-1-yl]sulfonyl}benzonitrile]	7
Cc1cccc(Cl)c1S(=O)(=O)N1CCN(C(=O)c2cnn[nH]2)CC1(C)C [Example 117, {4-[(2-chloro-6-methylphenyl)sulfonyl]-3,3-dimethylpiperazin-1-yl}(1H-1,2,3-triazol-5-yl)methanone]	4
C[C@@H]1CN(S(=O)(=O)c2ccccc2Cl)C[C@H](C)N1C(=O)c1c[nH]nn1 [Example 46, {(2R,6S)-4-[(2-chlorophenyl)sulfonyl]-2,6-dimethylpiperazin-1-yl}(1H-1,2,3-triazol-4-yl)methanone]	2
Cc1ccc(Cl)cc1S(=O)(=O)N1CCN(C(=O)c2cnn[nH]2)CC1(C)C [Example 129, {4-[(5-chloro-2-methylphenyl)sulfonyl]-3,3-dimethylpiperazin-1-yl}(1H-1,2,3-triazol-5-yl)methanone]	6
